Measurements reported in US7074824B2, “Pharmaceutical compositions containing beta-lapachone, or derivatives or analogs thereof, and methods of using same” (Arqule, Inc., priority 2001, dated 2006).
Values after ≈ are worked out from the molar mass of the structure shown. Like-named read-outs stand apart in the source and are kept apart here.

Experiments:
[1] = Solubility in water and in 40% (w/v) HPBCD solution by UV absorbance; format: physicochemical
Method: To determine solubilities, test compounds were first dissolved in ethanol to prepare standard solutions with concentrations in the range 2.5–10 mg/ml, then were diluted with to 10 μg/ml with water. UV scans were obtained of the 10 μg/ml standard solutions, and the wavelength of maximum absorbance and the absorbance at the maximum absorbance wavelength were determined. For each test compound 50 μl aliquots of water and of 40% HPBCD were added to individual Eppendorf tubes containing approximately 1 mg of compound each. The tubes were heated in a 30° C. waterbath, vortexed, then centrifuged at 15,000 rpm for 5 min. This step was repeated, then the tubes were cooled to room temperature for 1 hour, then were centrifuged again. The supernatant from each tube was diluted with water into the appropriate absorbance range, and the UV absorbance was measured at the compound's absorbance maximum wavelength. The concentrations of these saturated solutions were then calculated by ratio to the 10 μg/ml ethanolic standard solutions.

A2780CP = assay: MTS growth inhibition assay; format: cell-based, human; conditions: A2780CP (resistant) ovarian, read-out: Growth inhibitory activity (50% effective concentration, IC50)
Method: (§1) A2780 and A2780/CP (ovarian); MCF-7 (breast); HT-29 (colon); BxPC-3 (pancreas); and A549 (lung). The human tumor cell lines (purchased from ATCC, Rockville, Md.) were cultured at 37° C. […] Nova Tech, Grand Island, N.Y.) containing 10% fetal bovine serum (FBS, Nova Tech). Aliquots of cells were seeded into each well of 96-well microtiter plates at a final concentration of 10^4 cells/well and incubated for 24 h prior to exposure to test compounds. […] The MTS assay is a colorimetric assay based upon the ability of viable cells to convert MTS, a novel tetrazolium compound and electron-coupling reagent, to a colored formazan product that is soluble in cell culture medium. The cell concentration is then determined by measuring the absorbance of the formazan product at 490 nm. Growth inhibition, expressed as IC50, is calculated relative to vehicle-treated control cells.

A2780 = assay: MTS growth inhibition assay; format: cell-based, human; conditions: A2780 (sensitive) ovarian, read-out: Growth inhibitory activity (50% effective concentration, IC50)
Method: as §1

A549 = assay: MTS growth inhibition assay; format: cell-based, human; conditions: A549 lung, read-out: Growth inhibitory activity (50% effective concentration, IC50)
Method: as §1

BxPC-3 = assay: MTS growth inhibition assay; format: cell-based, human; conditions: BxPC-3 pancreas, read-out: Growth inhibitory activity (50% effective concentration, IC50)
Method: as §1

HT-29 = assay: MTS growth inhibition assay; format: cell-based, human; conditions: HT-29 colon, read-out: Growth inhibitory activity (50% effective concentration, IC50)
Method: as §1

MCF-7 = assay: MTS growth inhibition assay; format: cell-based, human; conditions: MCF-7 breast, read-out: Growth inhibitory activity (50% effective concentration, IC50)
Method: as §1

[2] = system: six human cancer cells lines; assay: MTS growth inhibition assay, summary over all lines; format: cell-based; conditions: all six tumor cell lines; tested up to 20 μM
Method: A2780 and A2780/CP (ovarian); MCF-7 (breast); HT-29 (colon); BxPC-3 (pancreas); and A549 (lung). The human tumor cell lines (purchased from ATCC, Rockville, Md.) were cultured at 37° C. (5% CO2) in RPMI medium (RPMI; Nova Tech, Grand Island, N.Y.) containing 10% fetal bovine serum (FBS, Nova Tech). Aliquots of cells were seeded into each well of 96-well microtiter plates at a final concentration of 10^4 cells/well and incubated for 24 h prior to exposure to test compounds. […] The MTS assay is a colorimetric assay based upon the ability of viable cells to convert MTS, a novel tetrazolium compound and electron-coupling reagent, to a colored formazan product that is soluble in cell culture medium. The cell concentration is then determined by measuring the absorbance of the formazan product at 490 nm. Growth inhibition, expressed as IC50, is calculated relative to vehicle-treated control cells.

[3] = Exp 1, 4 h treatment + 24 h drug-free
[4] = Exp 2, 4 h treatment + 24 h drug-free
[5] = Exp 3, 4 h treatment + 24 h drug-free

SMILES: CC1(C)CC(O)C2=C(O1)c1ccccc1C(=O)C2=O (stereo not drawn) [CO-503, 4-hydroxy β-lapachone]
- Solubility in HPBCD Solution ([1]; 40% (w/v) HPBCD, room temperature, saturated solution): 3100 µg/mL (≈ 12 mM)
- Solubility Enhancement ([1]; 40% HPBCD versus water): 8.0 −Fold
- Solubility in Water ([1]; water, room temperature, saturated solution): 381 µg/mL (≈ 1.48 mM)
- IC50 (A2780CP; Exp 1): 7.42 µM
- IC50 (A2780CP; Exp 2): 9.38 µM
- IC50 (A2780CP; Exp 3): 14.8 µM
- IC50 (A2780CP; Mean ± SE of 3 experiments): 10.5 ± 2.2 µM
- IC50 (A2780; [3]): 2.35 µM
- IC50 (A2780; [4]): 5.29 µM
- IC50 (A2780; [5]): 4.86 µM
- IC50 (A2780; Mean ± SE of 3 experiments): 4.16 ± 0.92 µM
- IC50 (A549; Exp 1): 14.3 µM
- IC50 (A549; Exp 2): 7.63 µM
- IC50 (A549; Exp 3): 9.77 µM
- IC50 (A549; Mean ± SE of 3 experiments): 10.6 ± 1.98 µM
- IC50 (BxPC-3; Exp 1): > 20 µM
- IC50 (BxPC-3; Exp 2): > 20 µM
- IC50 (BxPC-3; Exp 3): > 20 µM
- IC50 (BxPC-3; Mean ± SE of 3 experiments): > 20 µM
- IC50 (HT-29; Exp 1): 13.2 µM
- IC50 (HT-29; Exp 2): 11 µM
- IC50 (HT-29; Exp 3): 12.1 µM
- IC50 (HT-29; Mean ± SE of 3 experiments): 12.1 ± 0.63 µM
- IC50 (MCF-7; Exp 1): 18.8 µM
- IC50 (MCF-7; Exp 2): 19.4 µM
- IC50 (MCF-7; Exp 3): 19.3 µM
- IC50 (MCF-7; Mean ± SE of 3 experiments): 19.2 ± 0.17 µM
- growth inhibitory activity, verbal summary [2]: significantly less active across all cell lines

SMILES: CC1OC2=C(C(=O)C(=O)c3ccccc32)C1(C)C (stereo not shown) [CO-506]
- IC50 (A2780CP; Exp 1): 2.73 µM
- IC50 (A2780CP; Exp 2): 3.85 µM
- IC50 (A2780CP; Exp 3): 1.53 µM
- IC50 (A2780CP; Mean ± SE of 3 experiments): 2.7 ± 0.67 µM
- IC50 (A2780; [3]): 2.47 µM
- IC50 (A2780; [4]): 4.79 µM
- IC50 (A2780; [5]): 3.23 µM
- IC50 (A2780; Mean ± SE of 3 experiments): 3.5 ± 0.68 µM
- IC50 (A549; Exp 1): 7.5 µM
- IC50 (A549; Exp 2): 12.7 µM
- IC50 (A549; Exp 3): 15.3 µM
- IC50 (A549; Mean ± SE of 3 experiments): 11.8 ± 2.28 µM
- IC50 (BxPC-3; Exp 1): 5.69 µM
- IC50 (BxPC-3; Exp 2): 8.4 µM
- IC50 (BxPC-3; Exp 3): 9.22 µM
- IC50 (BxPC-3; Mean ± SE of 3 experiments): 7.77 ± 1.07 µM
- IC50 (HT-29; Exp 1): 17.3 µM
- IC50 (HT-29; Exp 2): 13.4 µM
- IC50 (HT-29; Exp 3): 11.2 µM
- IC50 (HT-29; Mean ± SE of 3 experiments): 14 ± 1.78 µM
- IC50 (MCF-7; Exp 1): 2.64 µM
- IC50 (MCF-7; Exp 2): 3.99 µM
- IC50 (MCF-7; Exp 3): 3.53 µM
- IC50 (MCF-7; Mean ± SE of 3 experiments): 3.39 ± 0.4 µM
- growth inhibitory activity, verbal summary [2]: activity profile similar to CO-501

SMILES: CC1(C)CC(=O)C2=C(O1)c1ccccc1C(=O)C2=O [CO-505]
- IC50 (A2780CP; Exp 1): > 20 µM
- IC50 (A2780CP; Exp 2): > 20 µM
- IC50 (A2780CP; Exp 3): > 20 µM
- IC50 (A2780CP; Mean ± SE of 3 experiments): > 20 µM
- IC50 (A2780; [3]): > 20 µM
- IC50 (A2780; [4]): > 20 µM
- IC50 (A2780; [5]): > 20 µM
- IC50 (A2780; Mean ± SE of 3 experiments): > 20 µM
- IC50 (A549; Exp 1): > 20 µM
- IC50 (A549; Exp 2): > 20 µM
- IC50 (A549; Exp 3): > 20 µM
- IC50 (A549; Mean ± SE of 3 experiments): > 20 µM
- IC50 (BxPC-3; Exp 1): > 20 µM
- IC50 (BxPC-3; Exp 2): > 20 µM
- IC50 (BxPC-3; Exp 3): > 20 µM
- IC50 (BxPC-3; Mean ± SE of 3 experiments): > 20 µM
- IC50 (HT-29; Exp 1): > 20 µM
- IC50 (HT-29; Exp 2): > 20 µM
- IC50 (HT-29; Exp 3): > 20 µM
- IC50 (HT-29; Mean ± SE of 3 experiments): > 20 µM
- IC50 (MCF-7; Exp 1): > 20 µM
- IC50 (MCF-7; Exp 2): > 20 µM
- IC50 (MCF-7; Exp 3): > 20 µM
- IC50 (MCF-7; Mean ± SE of 3 experiments): > 20 µM
- growth inhibitory activity, verbal summary [2]: inactive

SMILES: CCCCCC(=O)OC1=CC(=O)C(=O)c2ccccc21 [CO-507, 4-hexanoyloxy-1,2-naphthoquinone]
- IC50 (A2780CP; Exp 2): > 20 µM
- IC50 (A2780CP; Exp 3): > 20 µM
- IC50 (A2780CP; Mean ± SE of 3 experiments): > 20 µM
- IC50 (A2780CP; Homo sapiens, A2780C/P, Exp 1): > 20 µM
- IC50 (A2780; [4]): > 20 µM
- IC50 (A2780; [5]): > 20 µM
- IC50 (A2780; Mean ± SE of 3 experiments): > 20 µM
- IC50 (A2780; Homo sapiens, Exp 1, 4 h treatment + 24 h drug-free): > 20 µM
- IC50 (A549; Exp 2): > 20 µM
- IC50 (A549; Exp 3): > 20 µM
- IC50 (A549; Mean ± SE of 3 experiments): > 20 µM
- IC50 (A549; Homo sapiens, Exp 1): > 20 µM
- IC50 (BxPC-3; Exp 2): > 20 µM
- IC50 (BxPC-3; Exp 3): > 20 µM
- IC50 (BxPC-3; Mean ± SE of 3 experiments): > 20 µM
- IC50 (BxPC-3; Homo sapiens, Exp 1): > 20 µM
- IC50 (HT-29; Exp 2): > 20 µM
- IC50 (HT-29; Exp 3): > 20 µM
- IC50 (HT-29; Mean ± SE of 3 experiments): > 20 µM
- IC50 (HT-29; Homo sapiens, Exp 1): > 20 µM
- IC50 (MCF-7; Homo sapiens, MCF7, Exp 1): > 20 µM
- IC50 (MCF-7; Exp 2): > 20 µM
- IC50 (MCF-7; Exp 3): > 20 µM
- IC50 (MCF-7; Mean ± SE of 3 experiments): > 20 µM
- growth inhibitory activity, verbal summary [2]: inactive
